Assays:
[1] = MST; described in WO2021183908A1; cited from earlier work
[2] = tested on: senescent human cells; test: Viability of doxorubicin-induced senescent human cells (CellTiter-Glo), Example 11; type: cell-based; details: 0 μM = 100
Procedure: Cells in which senescence was induced by treatment with doxorubicin were treated with the test compound at designated concentrations and measured using the CellTiter-Glo Luminescent Cell Viability Assay (Promega).
After 3 days, cell viability was measured using CellTiter-Glo Luminescent Cell Viability Assay (Promega) or light microscopy.

[3] = tested on: HMGN1 secreted from senescent A549 cells; test: HMGN1 secretion (ELISA) from senescent A549 cancer cells, Example 12; type: cell-based, human; details: senescent untreated = 100%; 30 μM; 90 μM for LX-305, 905, 1302, 1601, 1603, 2003, 2702, 2901, 3106; 270 μM for LX-1103, 2005, 2007;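 further: A549 cells made senescent by doxorubicin exposure, with DMSO-treated cells serving as the non-senescent control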
Procedure: (§1) Cells were treated with doxorubicin or control (DMSO) and cultured.

[4] = tested on: senescent A549 cells; test: Viability of senescent A549 cancer cells (CellTiter-Glo), Example 12; type: cell-based, human; details: 0 μM = 100
Procedure: as §1
Cancer cells in which aging was induced by treatment with doxorubicin were treated with the test compound at designated concentrations and measured using the CellTiter-Glo Luminescent Cell Viability Assay (Promega).

[5] = tested on: senescent foreskin cells; test: Survival of senescent human cells treated with supernatant (secreted fluid) from death-induced cells, Example 13; type: cell-based; details: Table 8; supernatant from dying senescent cells treated at 30, 90 or 270 μM (as Example 11); senescent treated cells
[6] = tested on: carbon tetrachloride-induced liver fibrosis mice; test: Carbon tetrachloride-induced liver fibrosis mice, Example 31, Table 57; type: in vivo, mouse; details: CCl4-induced liver fibrosis mice, untreated = 100%
Summary of the method: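 Mice with induced hepatic fibrosis received either the test compound or, as controls, an equal volume of vehicle solution alone. Once dosing ended, liver tissue was harvested and total RNA was isolated. cDNA was synthesized from this RNA, and quantitative RT-PCR was run on it to measure hepatic mRNA levels of the fibrosis- and senescence-related genes.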

[7] = tested on: naturally aged mice; test: Anti-aging evaluation in naturally aged mice, Example 31, Table 55; type: in vivo, mouse; details: for Femur Ctsk mRNA / Kidney Agtr1a mRNA / Liver IL6 mRNA / Liver MMP3 mRNA / Liver p16 mRNA / Open Field Test Time in Center: untreated = 100%; for Heart Sur2a mRNA / Joint Col2a1 mRNA / Skin Col1a1 mRNA / Skin SDF1 mRNA: untreated = 1.0; for Muscle Mass: untreated 0.64 g; for Fat Mass: untreated 0.82 g; for Cataract incidence: untreated 83%;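 on all read-outs here: Vehicle-dosed control mice received solution alone at matching volume, values compare test-compound-treated aged mice against that control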
Procedure: After the end of drug administration, the method described in each example below was performed. […] The mRNA amounts of p16, MMP3, and IL6 after natural aging was induced were calculated as 100% and compared with the mRNA amounts of p16, MMP3, and IL6 after treatment with the test compound. In addition, an open field test for the analysis of aging-related frailty, agtr1a mRNA analysis for kidney damage and disease evaluation, col1a1 and SDF1 mRNA analysis for skin aging evaluation such as wrinkles/loss of elasticity/hyperpigmentation, col2a1 mRNA analysis for evaluating joint aging such as osteoarthritis, sur2a mRNA analysis for evaluating cardiac aging such as decreased cardiac load resistance, ctsk mRNA analysis for evaluating bone diseases due to aging such as osteoporosis, muscle tissue weight for analyzing sarcopenia, fat tissue weight for analyzing lipoatrophy, and cataract incidence analysis were performed in mice. For cataract incidence analysis, the drug was administered twice a week under the conditions specified above, and biweekly examinations were conducted until death.

[8] = tested on: HMGN1 secreted from senescent human cells; test: HMGN1 secretion (ELISA) from doxorubicin-induced senescent human cells, Example 11; type: cell-based; details: senescent untreated = 100%; 30 μM; 90 μM for LX-305, 1302, 1603, 2005, 2702, 2901, 3106; 270 μM for LX-1103, 2007
[9] = tested on: bleomycin-induced pulmonary fibrosis mice; test: Bleomycin-induced pulmonary fibrosis mice, Example 31, Table 56; type: in vivo, mouse; details: untreated = 100%
Summary of the method: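 Mice with bleomycin-induced pulmonary fibrosis, untreated or given test compound, with vehicle-only controls. Lung tissue collected for RNA extraction and qRT-PCR analysis.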

Row | SMILES | Kd [1] [nM] | Survival ([2]; 1.1 μM) [%] | Survival ([2]; 10 μM) [%] | Survival ([2]; […]) [%] | HMGN1 [3] [%] | Survival ([4]; 1.1 μM) [%] | Survival ([4]; 10 μM) [%] | Survival ([4]; 30 μM) [%] | Survival ([4]; […]) [%] | Survival [5] | Liver p16 mRNA [6] | Col1a1 mRNA [6] | Femur Ctsk mRNA [7] [%] | Heart Sur2a mRNA [7] [fold] | Joint Col2a1 mRNA [7] [fold] | Kidney Agtr1a mRNA [7] [%] | Liver IL6 mRNA [7] [%] | Liver MMP3 mRNA [7] [%] | Liver p16 mRNA [7] [%] | Open Field Test Time in Center [7] [%] | also measured
1 | CC(C)(C)OC(=O)C(N1C(=O)c2ccccc2C1=O)C(C)(C)C (stereo not drawn) [QW-034] | 979 |  |  |  |  |  |  |  |  |  |  |  |  |  |  |  |  |  |  |  | 
2 | CC(C)OC(=O)CCCN1C(=O)c2ccccc2C1=O [QW-017] | 399 |  |  |  |  |  |  |  |  |  |  |  |  |  |  |  |  |  |  |  | 
3 | CN(Cc1cnc2nc(N)nc(N)c2n1)c1ccc(C(=O)N[C@@H](CCC(=O)O)C(=O)O)cc1 [LX-2901, Methotrexate] |  | 103.3 | 104.8 | 97.8 | 189 | 89 | 90.4 | 92.3 | 87.8 | 97.5 | 59 (±1.3) % | 73 (±3.6) % | 51 | 1.7 | 4.0 | 67 | 55 | 72 | 64 | 167 | Survival ([2]; 30 μM): 93.6%; Survival ([2]; 90 μM): 49.9%; Survival ([4]; 90 μM): 37.2%; Skin Col1a1 mRNA [7]: 1.7 Fold; Skin SDF1 mRNA [7]: 1.8 fold; Muscle Mass [7]: 0.69 g; Fat Mass [7]: 0.90 g; Cataract incidence [7]: 59%; HMGN1 [8]: 167%; Lung p16 mRNA [9]: 72 (±5.7) %; Col1a1 mRNA [9]: 61 (±4.3) %
4 | CC(C)(C)OC(=O)CCN1C(=O)c2ccccc2C1=O [QW-011] | 926 |  |  |  |  |  |  |  |  |  |  |  |  |  |  |  |  |  |  |  | 
5 | CC(C(=O)OC(C)(C)C)N1C(=O)c2ccccc2C1=O (stereo not drawn) [QW-023] | 1780 |  |  |  |  |  |  |  |  |  |  |  |  |  |  |  |  |  |  |  | 
6 | C[N+](C)(C)CCO.C[N+](C)(C)CCO.[SH-].[SH-].[S]=[Mo]=[S] [LX-2601] |  | 95.2 | 58.6 | 81.8 | 193 | 98.6 | 59.7 | 50.7 | 86 | 67.3 | 75 (±3.2) % | 63 (±2.6) % | 60 | 2.7 | 2.3 | 73 | 75 | 77 | 73 | 166 | Survival ([2]; 30 μM): 21.8%; Skin Col1a1 mRNA [7]: 2.3 Fold; Skin SDF1 mRNA [7]: 1.9 fold; Muscle Mass [7]: 0.71 g; Fat Mass [7]: 0.88 g; Cataract incidence [7]: 80%; HMGN1 [8]: 263%; Lung p16 mRNA [9]: 81 (±5.2) %; Col1a1 mRNA [9]: 67 (±3.0) %
7 | CCC(C)C(C(=O)OC(C)(C)C)N1C(=O)c2ccccc2C1=O (stereo not drawn) [QW-050] | 2430 |  |  |  |  |  |  |  |  |  |  |  |  |  |  |  |  |  |  |  | 
8 | Cc1nc(-c2nc(-c3ccc(OC(F)(F)F)cc3)no2)nn1Cc1cccc(N2CCC(S(C)(=O)=O)CC2)c1 [LX-3200] |  | 92.2 | 14.3 | 78.6 | 305 | 94.9 | 61.6 | 1.6 | 91.7 | 54.9 | 75 (±9.8) % | 80 (±9.6) % | 68 | 1.4 | 1.3 | 62 | 67 | 71 | 77 | 188 | Skin Col1a1 mRNA [7]: 1.4 Fold; Skin SDF1 mRNA [7]: 1.6 fold; Muscle Mass [7]: 0.69 g; Fat Mass [7]: 1.03 g; Cataract incidence [7]: 72%; HMGN1 [8]: 234%; Lung p16 mRNA [9]: 76 (±5.7) %; Col1a1 mRNA [9]: 63 (±6.9) %
9 | CC(C)(C)OC(=O)CCCCCN1C(=O)c2ccccc2C1=O [QW-029] | 2100 |  |  |  |  |  |  |  |  |  |  |  |  |  |  |  |  |  |  |  | 
10 | CC(C)(C)OC(=O)C(C)(C)N1C(=O)c2ccccc2C1=O [QW-020] | 2140 |  |  |  |  |  |  |  |  |  |  |  |  |  |  |  |  |  |  |  | 
11 | CCOC(=O)[C@@H](N)CCC(=O)N[C@@H](CSCc1ccccc1)C(=O)N[C@@H](C(=O)OCC)c1ccccc1 [LX-2602, Ezatiostat] |  | 97.3 | 76.9 | 92.5 | 283 | 102.7 | 96 | 32.5 | 107.4 | 69.5 | 77 (±3.9) % | 82 (±3.7) % | 59 | 1.7 | 2.2 | 61 | 80 | 64 | 71 | 158 | Survival ([2]; 30 μM): 47.6%; Skin Col1a1 mRNA [7]: 2.5 Fold; Skin SDF1 mRNA [7]: 2.0 fold; Muscle Mass [7]: 0.69 g; Fat Mass [7]: 0.84 g; Cataract incidence [7]: 81%; HMGN1 [8]: 208%; Lung p16 mRNA [9]: 68 (±3.5) %; Col1a1 mRNA [9]: 58 (±2.9) %
